Reference: ChEMBL document CHEMBL5131437, “Development of novel 2-aminoalkyl-6-(2-hydroxyphenyl)pyridazin-3(2H)-one derivatives as balanced multifunctional agents against Alzheimer's disease” (Eur J Med Chem, 2022)
The source made the active and inactive calls. No cut-off for these calls is given here.

Key:
[1] = molecular target: Amyloid-beta precursor protein (Homo sapiens) (UniProt P05067); assay: Inhibition of self-induced amyloid beta (1 to 42) (unknown origin) aggregation by Thioflavin T based fluorometric assay relative to control; set-up: concentration or dose not given beside the values; settings: concentration not given here
[2] = molecular target: Amyloid-beta precursor protein (Homo sapiens) (UniProt P05067); assay: Inhibition of Cu2+ induced amyloid beta (1 to 42 residues) (unknown origin) aggregation at 25 uM relative to control
Acetylcholinesterase = Acetylcholinesterase (Electrophorus electricus, UniProt O42275); assay: Inhibition of electric eel AChE by Ellman's method; settings: read-out: IC50
[3] = Antioxidant activity of compound assessed as trolox equivalent of ORAC radical scavenging activity by ORAC-FL assay; assay type: functional
[4] = molecular target: Amyloid-beta precursor protein (Homo sapiens) (UniProt P05067); assay: Inhibition of self-induced amyloid beta (1 to 42) (unknown origin) disaggregation by Thioflavin T based fluorometric assay relative to control; set-up: concentration or dose not given beside the values; settings: concentration not given here
[5] = molecular target: Amyloid-beta precursor protein (Homo sapiens) (UniProt P05067); assay: Inhibition of Cu2+ induced amyloid beta (1 to 42 residues) (unknown origin) aggregation; settings: concentration not given here
[6] = molecular target: Amyloid-beta precursor protein (Homo sapiens) (UniProt P05067); assay: Inhibition of Cu2+ induced amyloid beta (1 to 42 residues) (unknown origin) disaggregation; settings: concentration not given here
[7] = Inhibition of reactive oxygen species production using Cu-ascorbate redox system by coumarin-3-carboxylic acid dye based fluorescence analysis; assay type: functional
[8] = molecular target: Amyloid-beta precursor protein (Homo sapiens) (UniProt P05067); assay: Inhibition of amyloid beta (1 to 42 ) (unknown origin) self-induced aggregation assessed as reduction in number of amyloid beta (1 to 42 residues) fibrils at 25 uM incubated for 24 hrs by Thioflavin T based fluorometric assay
[9] = molecular target: Amyloid-beta precursor protein (Homo sapiens) (UniProt P05067); assay: Inhibition of amyloid beta (1 to 42 ) (unknown origin) self-induced amyloid beta (1 to 42 ) disaggregation at 25 uM pre incubated for 24 hrs to form fibril followed by compound addition incubated for another 24 hrs by Thioflavin T based fluorometric assay
[10] = molecular target: Amyloid-beta precursor protein (Homo sapiens) (UniProt P05067); assay: Inhibition of Cu2+ induced amyloid beta (1 to 42 ) (unknown origin) aggregation assessed as fibrils incubated for 24 hrs by compound addition incubated for 24 hrs
[11] = molecular target: Amyloid-beta precursor protein (Homo sapiens) (UniProt P05067); assay: Inhibition of Cu2+ induced amyloid beta (1 to 42 ) (unknown origin) aggregation assessed as fibrils formation at 25 uM pre incubated for 24 hrs followed by compound addition incubated for another 24 hrs by Thioflavin T based fluorometric assay
[12] = Metal chelating activity assessed as Cu2+-compound complex by measuring enhancement of absorption intensity at 246 nm by UV-visible spectrophotometry
[13] = Metal chelating activity assessed as Fe2+-compound complex by measuring enhancement of absorption intensity at 246 nm by UV-visible spectrophotometry
[14] = Metal chelating activity assessed as Fe3+-compound complex by measuring enhancement of absorption intensity at 246 nm by UV-visible spectrophotometry
[15] = Metal chelating activity assessed as AL3+-compound complex by measuring enhancement of absorption intensity at 246 nm by UV-visible spectrophotometry
[16] = Metal chelating activity assessed as Zn2+-compound complex by measuring enhancement of absorption intensity at 246 nm by UV-visible spectrophotometry
BV-2 [17] = assay: Anti-neuroinflammation activity in mouse BV-2 cells assessed as decrease in LPS-induced TNF-alpha production at 0.5 uM by ELISA; assay type: functional; set-up: scale not given: the % may be the effect or the level left; settings: time 24 hrs
BV-2 [18] = assay: Anti-neuroinflammation activity in mouse BV-2 cells assessed as decrease in LPS-induced TNF-alpha production at 2.5 uM by ELISA; assay type: functional; set-up: scale not given: the % may be the effect or the level left; settings: time 24 hrs
BV-2 [19] = assay: Anti-neuroinflammation activity in mouse BV-2 cells assessed as decrease in LPS-induced TNF-alpha production at 10 uM by ELISA; assay type: functional; set-up: scale not given: the % may be the effect or the level left
[20] = Permeability of the compound in PBS/EtOH buffer (70:30) by PAMPA-BBB assay; assay type: ADME; settings: read-out: permeability
[21] = Drug concentration in mouse plasma at 30 mg/kg administered intragastrically measured after 0.5 hrs; assay type: ADME, organism-based; settings: po
[22] = Drug concentration in mouse brain at 30 mg/kg administered intragastrically measured after 0.5 hrs; assay type: ADME, organism-based; settings: po, route ig, read-out: Ct
[23] = Ratio of drug concentration in brain to plasma of mouse at 30 mg/kg administered intragastrically measured after 0.5 hrs; assay type: ADME, organism-based; settings: po, route ig, read-out: logBB (converted)
Mus musculus [24] = assay: Antialzheimer activity against scopolamine-induced cognitive deficit mouse assessed as improvement in memory impairment by measuring reduction in number of errors administrated intragastric by step-through passive avoidance test; assay type: functional, organism-based; settings: dose 2-17.7 mg/kg, route ig, DDE = dose-dependent effect
Mus musculus [25] = assay: Antialzheimer activity against scopolamine-induced cognitive deficit mouse assessed as improvement in memory impairment by measuring latency time administrated intragastric by step-through passive avoidance test; assay type: functional, organism-based; settings: dose 2-17.7 mg/kg, route ig, DDE = dose-dependent effect
Mus musculus [26] = assay: Neuroprotective activity in scopolamine-induced cognitive deficit mouse assessed as improvement in memory impairment at 5.9 mg/kg, IG in presence of donepezil at 5.0 mg/kg; assay type: functional, organism-based
[27] = Neurotoxicity in scopolamine-induced cognitive deficit mouse model measured after re-increasement at 2.0 to 17.7 mg/kg, IG; assay type: toxicity, organism-based; settings: in vivo, po, dose 2-17.7 mg/kg
Mus musculus [28] = assay: Antialzheimer activity against scopolamine-induced cognitive deficit mouse model assessed as increase in AChE content at 5.9 mg/kg, IG by step-through passive avoidance test; assay type: functional
Mus musculus [29] = assay: Antialzheimer activity against scopolamine-induced cognitive deficit mouse model assessed as increase in AChE content at 17.7 mg/kg, IG by step-through passive avoidance test; assay type: functional
Mus musculus [30] = assay: Antialzheimer activity against scopolamine-induced cognitive deficit mouse model assessed as decrease in lipid peroxidation at 2.0 mg/kg, IG by step-through passive avoidance test; assay type: functional
Mus musculus [31] = assay: Antialzheimer activity against scopolamine-induced cognitive deficit mouse model assessed as decrease in lipid peroxidation at 5.9 mg/kg, IG by step-through passive avoidance test; assay type: functional
Mus musculus [32] = assay: Antialzheimer activity against scopolamine-induced cognitive deficit mouse model assessed as decrease in lipid peroxidation at 17.7 mg/kg, IG by step-through passive avoidance test; assay type: functional
Mus musculus [33] = assay: Antialzheimer activity against scopolamine-induced cognitive deficit mouse model assessed as increase in vitality of SOD at 2.0 mg/kg, IG by step-through passive avoidance test; assay type: functional
Mus musculus [34] = assay: Antialzheimer activity against scopolamine-induced cognitive deficit mouse model assessed as increase in vitality of SOD at 5.9 mg/kg, IG by step-through passive avoidance test; assay type: functional
Mus musculus [35] = assay: Antialzheimer activity against scopolamine-induced cognitive deficit mouse model assessed as increase in vitality of SOD at 17.7 mg/kg, IG by step-through passive avoidance test; assay type: functional
BV-2 [36] = assay: Anti-neuroinflammation activity in mouse BV-2 cells assessed as decrease in LPS-induced TNFalpha production at 0.5 uM by ELISA; assay type: functional; set-up: scale not given: the % may be the effect or the level left
BV-2 [37] = assay: Anti-neuroinflammation activity in mouse BV-2 cells assessed as decrease in LPS-induced TNFalpha production at 2.5 uM by ELISA; assay type: functional; set-up: scale not given: the % may be the effect or the level left
BV-2 [38] = assay: Anti-neuroinflammation activity in mouse BV-2 cells assessed as decrease in LPS-induced TNFalpha production at 10 uM by ELISA; assay type: functional; set-up: scale not given: the % may be the effect or the level left
[39] = molecular target: Amyloid-beta precursor protein (Homo sapiens) (UniProt P05067); assay: Inhibition of Cu2+ induced amyloid beta (1 to 42 residues) (unknown origin) assessed as disaggregation at 25 uM relative to control; set-up: scale not given: the % may be the effect or the level left
[40] = system: Butyrylcholinesterase (Rattus norvegicus); assay: Inhibition of rat serum BuChE at 10 uM by Ellman's method relative to control

Amyloid-beta precursor protein (Homo sapiens), sequence (P05067 whole entry, the tested form may be a part): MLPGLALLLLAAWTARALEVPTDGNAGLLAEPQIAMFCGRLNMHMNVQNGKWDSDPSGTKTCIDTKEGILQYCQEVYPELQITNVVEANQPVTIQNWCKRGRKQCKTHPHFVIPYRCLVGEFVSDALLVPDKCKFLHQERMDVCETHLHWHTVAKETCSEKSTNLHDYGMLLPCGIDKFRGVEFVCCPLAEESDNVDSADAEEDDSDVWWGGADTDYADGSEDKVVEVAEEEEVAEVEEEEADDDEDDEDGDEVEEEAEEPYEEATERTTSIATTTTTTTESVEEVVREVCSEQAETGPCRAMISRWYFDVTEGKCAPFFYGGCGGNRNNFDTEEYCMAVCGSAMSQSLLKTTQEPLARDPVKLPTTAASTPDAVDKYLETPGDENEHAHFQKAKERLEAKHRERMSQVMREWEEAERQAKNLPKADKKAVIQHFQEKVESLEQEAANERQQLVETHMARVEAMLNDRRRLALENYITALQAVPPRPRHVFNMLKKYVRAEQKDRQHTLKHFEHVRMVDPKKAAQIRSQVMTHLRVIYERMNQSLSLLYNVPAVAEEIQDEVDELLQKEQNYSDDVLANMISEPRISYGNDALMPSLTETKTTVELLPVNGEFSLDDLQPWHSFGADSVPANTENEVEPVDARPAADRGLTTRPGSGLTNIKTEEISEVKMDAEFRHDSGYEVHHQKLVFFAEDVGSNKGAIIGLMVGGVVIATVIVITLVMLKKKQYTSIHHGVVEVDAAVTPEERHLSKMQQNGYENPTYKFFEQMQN
Acetylcholinesterase, sequence (O42275 whole entry): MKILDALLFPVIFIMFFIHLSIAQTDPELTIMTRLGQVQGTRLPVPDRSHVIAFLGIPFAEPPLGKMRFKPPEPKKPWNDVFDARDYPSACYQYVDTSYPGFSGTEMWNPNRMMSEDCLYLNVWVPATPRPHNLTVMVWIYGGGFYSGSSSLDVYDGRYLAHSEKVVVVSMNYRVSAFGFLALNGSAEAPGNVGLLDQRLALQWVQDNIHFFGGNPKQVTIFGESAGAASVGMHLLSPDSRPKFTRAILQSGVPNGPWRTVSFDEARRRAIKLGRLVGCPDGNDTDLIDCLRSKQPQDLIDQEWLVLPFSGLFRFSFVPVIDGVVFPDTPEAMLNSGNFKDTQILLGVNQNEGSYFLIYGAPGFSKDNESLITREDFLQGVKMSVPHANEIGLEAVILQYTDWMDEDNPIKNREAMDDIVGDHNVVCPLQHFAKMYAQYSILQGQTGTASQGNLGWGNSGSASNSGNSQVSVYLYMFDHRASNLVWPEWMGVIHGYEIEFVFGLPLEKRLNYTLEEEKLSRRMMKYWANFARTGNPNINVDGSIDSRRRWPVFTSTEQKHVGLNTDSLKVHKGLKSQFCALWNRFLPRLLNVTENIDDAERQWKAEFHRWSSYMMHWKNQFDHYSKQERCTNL

## CCN(CCCCCCn1nc(-c2cc(N(C)C)ccc2O)ccc1=O)Cc1ccccc1N(C)C
[1]
  inhibition: 99.1%
[2]
  inhibition: 99.6%
Acetylcholinesterase
  IC50: 200 nM
[3]
  Activity: 3.03
[4]
  inhibition: 89%
[5]
  inhibition: 2.18%
[6]
  inhibition: 1.17%
[7]
  inhibition: Active
[8]
  inhibition: Active
[9]
  inhibition: Active
[10]
  Activity: Active
[11]
  Activity: Active
[12]
  Activity: Active
[13]
  Activity: Active
[14]
  Activity: Active
[15]
  Activity: Active
[16]
  Activity: Active
BV-2 [17]
  Activity: 26.3%
BV-2 [18]
  Activity: 52.6%
BV-2 [19]
  Activity: 73.7%
[20]
  Papp at 16 h: 13.5 ×10⁻⁶ cm/s
[21]
  concentration at 0.5 h: 324 ng/mL
[22]
  concentration at 0.5 h: 82.9 ng/g
[23]
  Kp at 0.5 h: 0.245
Mus musculus [24]
  Activity: Dde
Mus musculus [25]
  Activity: Dde
Mus musculus [26]
  Activity: Active
[27]
  Activity: Non-Toxic
Mus musculus [28]
  Activity: 27.3 µg/mg
Mus musculus [29]
  Activity: 30.3 µg/mg
Mus musculus [30]
  Activity: 2.73 nmol/mg
Mus musculus [31]
  Activity: 2.33 nmol/mg
Mus musculus [32]
  Activity: 2.04 nmol/mg
Mus musculus [33]
  Activity: 131.33 U/mg
Mus musculus [34]
  Activity: 146.67 U/mg
Mus musculus [35]
  Activity: 161.02 U/mg
BV-2 [36]
  Activity: 35.4%
BV-2 [37]
  Activity: 46.8%
BV-2 [38]
  Activity: 70.2%
[39]
  Activity: 94.8%
[40]
  inhibition: 18.2%
